Laboratory results from PubChem BioAssay (NCI).
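96-well plates; 48 h exposure; 5 concentrations. Endpoints by linear interpolation between flanking doses. Not reached: highest tested concentration assigned. TGI marks complete inhibition of growth.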

Tests used:
Assay in all cases: NCI tumour cell line growth inhibition, 48 h
[1] = test system: NCI-H23 lung
[2] = test system: SNB-75 CNS
[3] = test system: K-562 leukemia
[4] = test system: MDA-N
[5] = test system: OVCAR-4 ovarian
[6] = test system: LOX IMVI melanoma
[7] = test system: UACC-257 melanoma
[8] = test system: MDA-MB-435
[9] = test system: UACC-62 melanoma
[10] = test system: MOLT-4 leukemia
[11] = test system: NCI/ADR-RES ovarian
[12] = test system: SK-MEL-5 melanoma
[13] = test system: NCI-H460 lung
[14] = test system: SW-620 colon
[15] = test system: SN12C renal
[16] = test system: U251 CNS
[17] = test system: SR leukemia
[18] = test system: COLO 205 colon
[19] = test system: SNB-19 CNS
[20] = test system: ACHN renal
[21] = test system: HCT-116 colon
[22] = test system: KM12 colon
[23] = test system: MCF7 breast
[24] = test system: IGROV1 ovarian
[25] = test system: CAKI-1 renal
[26] = test system: PC-3 prostate
[27] = test system: 786-0 renal
[28] = test system: HOP-62 NSCLC
[29] = test system: M14 melanoma
[30] = test system: HCC-2998 colon
[31] = test system: T-47D breast
[32] = test system: HS 578T breast
[33] = test system: HOP-92 NSCLC
[34] = test system: EKVX NSCLC
[35] = test system: A549 NSCLC
[36] = test system: BT-549 breast
[37] = test system: A498 renal
[38] = test system: SF-539 CNS
[39] = test system: RPMI-8226 leukemia
[40] = test system: OVCAR-5 ovarian
[41] = test system: RXF 393 renal
[42] = test system: TK-10 renal
[43] = test system: SK-MEL-28 melanoma
[44] = test system: MDA-MB-231 breast
[45] = test system: HL-60(TB) leukemia
[46] = test system: SK-OV-3 ovarian
[47] = test system: HCT-15 colon
[48] = test system: DU-145 prostate
[49] = test system: SF-295 CNS
[50] = test system: OVCAR-3 ovarian
[51] = test system: UO-31 renal
[52] = test system: CCRF-CEM leukemia
[53] = test system: SK-MEL-2 melanoma
[54] = test system: SF-268 CNS
[55] = test system: NCI-H522 lung
[56] = test system: OVCAR-8 ovarian
[57] = test system: HT29 colon
[58] = test system: MALME-3M melanoma
[59] = test system: NCI-H226 lung

SMILES: Fc1cccc(F)c1C1SCC2=Nc3ccccc3CN21 (centres undefined)
- TGI [1]: > 100 µM
- TGI [2]: 81.8 µM
- TGI [3]: > 100 µM
- TGI [4]: > 100 µM
- TGI [5]: > 100 µM
- TGI [6]: > 100 µM
- TGI [7]: > 100 µM
- TGI [8]: > 100 µM
- TGI [9]: > 100 µM
- TGI [10]: > 100 µM
- TGI [11]: 79.5 µM
- TGI [12]: > 100 µM
- TGI [13]: > 100 µM
- TGI [14]: > 100 µM
- TGI [15]: > 100 µM
- TGI [16]: > 100 µM
- TGI [17]: > 100 µM
- TGI [18]: > 100 µM
- TGI [19]: > 100 µM
- TGI [20]: > 100 µM
- TGI [21]: > 100 µM
- TGI [22]: > 100 µM
- TGI [23]: > 100 µM
- TGI [24]: > 100 µM
- TGI [25]: > 100 µM
- TGI [26]: > 100 µM
- TGI [27]: > 100 µM
- TGI [28]: 84.4 µM
- TGI [29]: > 100 µM
- TGI [30]: > 100 µM
- TGI [31]: > 100 µM
- TGI [32]: > 100 µM
- TGI [33]: > 100 µM
- TGI [34]: > 100 µM
- TGI [35]: > 100 µM
- TGI [36]: > 100 µM
- TGI [37]: > 100 µM
- TGI [38]: 92.7 µM
- TGI [39]: > 100 µM
- TGI [40]: > 100 µM
- TGI [41]: 63.2 µM
- TGI [42]: > 100 µM
- TGI [43]: > 100 µM
- TGI [44]: > 100 µM
- TGI [45]: > 100 µM
- TGI [46]: > 100 µM
- TGI [47]: > 100 µM
- TGI [48]: > 100 µM
- TGI [49]: > 100 µM
- TGI [50]: 47.5 µM
- TGI [51]: > 100 µM
- TGI [52]: > 100 µM

SMILES: O=C1CC(NC(=O)C(F)(F)F)c2c(Br)sc(N3CCC(c4ccccc4)CC3)c21 (centres undefined)
- TGI [1]: > 100 µM
- TGI [53]: > 100 µM
- TGI [2]: > 100 µM
- TGI [3]: > 100 µM
- TGI [4]: > 100 µM
- TGI [5]: 92.6 µM
- TGI [6]: > 100 µM
- TGI [7]: 82.4 µM
- TGI [8]: > 100 µM
- TGI [54]: > 100 µM
- TGI [9]: > 100 µM
- TGI [10]: > 100 µM
- TGI [11]: > 100 µM
- TGI [12]: 68.4 µM
- TGI [13]: > 100 µM
- TGI [55]: > 100 µM
- TGI [14]: > 100 µM
- TGI [15]: > 100 µM
- TGI [16]: 25.5 µM
- TGI [18]: > 100 µM
- TGI [19]: 78.2 µM
- TGI [20]: > 100 µM
- TGI [21]: > 100 µM
- TGI [22]: > 100 µM
- TGI [23]: > 100 µM
- TGI [24]: > 100 µM
- TGI [25]: 43.8 µM
- TGI [26]: > 100 µM
- TGI [27]: > 100 µM
- TGI [29]: > 100 µM
- TGI [30]: > 100 µM
- TGI [56]: > 100 µM
- TGI [31]: 55.4 µM
- TGI [32]: 79.6 µM
- TGI [33]: 41.1 µM
- TGI [34]: > 100 µM
- TGI [35]: > 100 µM
- TGI [36]: > 100 µM
- TGI [37]: > 100 µM
- TGI [57]: > 100 µM
- TGI [38]: > 100 µM
- TGI [58]: > 100 µM
- TGI [40]: > 100 µM
- TGI [41]: 88.3 µM
- TGI [42]: 97.7 µM
- TGI [44]: 39.8 µM
- TGI [45]: > 100 µM
- TGI [46]: > 100 µM
- TGI [47]: > 100 µM
- TGI [48]: > 100 µM
- TGI [49]: 28.7 µM
- TGI [59]: 91.5 µM
- TGI [50]: 95.8 µM
- TGI [51]: > 100 µM
- TGI [52]: > 100 µM

SMILES: Oc1ccc(-c2cc(-c3c(O)cc(O)cc3O)on2)cc1
- TGI [1]: > 100 µM
- TGI [53]: > 100 µM
- TGI [2]: > 100 µM
- TGI [3]: > 100 µM
- TGI [4]: > 100 µM
- TGI [5]: > 100 µM
- TGI [6]: > 100 µM
- TGI [7]: > 100 µM
- TGI [8]: > 100 µM
- TGI [54]: > 100 µM
- TGI [9]: > 100 µM
- TGI [10]: > 100 µM
- TGI [11]: > 100 µM
- TGI [12]: > 100 µM
- TGI [13]: > 100 µM
- TGI [55]: > 100 µM
- TGI [14]: > 100 µM
- TGI [15]: > 100 µM
- TGI [16]: > 100 µM
- TGI [17]: > 100 µM
- TGI [19]: > 100 µM
- TGI [20]: > 100 µM
- TGI [21]: > 100 µM
- TGI [22]: > 100 µM
- TGI [23]: > 100 µM
- TGI [24]: > 100 µM
- TGI [25]: > 100 µM
- TGI [26]: > 100 µM
- TGI [27]: > 100 µM
- TGI [28]: > 100 µM
- TGI [29]: > 100 µM
- TGI [30]: > 100 µM
- TGI [56]: > 100 µM
- TGI [31]: > 100 µM
- TGI [32]: > 100 µM
- TGI [34]: > 100 µM
- TGI [35]: > 100 µM
- TGI [36]: > 100 µM
- TGI [57]: > 100 µM
- TGI [38]: > 100 µM
- TGI [58]: > 100 µM
- TGI [39]: > 100 µM
- TGI [40]: > 100 µM
- TGI [42]: > 100 µM
- TGI [43]: > 100 µM
- TGI [44]: > 100 µM
- TGI [45]: > 100 µM
- TGI [46]: > 100 µM
- TGI [47]: > 100 µM
- TGI [48]: > 100 µM
- TGI [49]: > 100 µM
- TGI [59]: > 100 µM
- TGI [50]: > 100 µM
- TGI [51]: > 100 µM
- TGI [52]: > 100 µM

SMILES: CCOC(=O)C(NCc1ccccc1)(NC(=O)c1ccccc1)C(F)(F)F (centres undefined)
- TGI [1]: > 100 µM
- TGI [53]: > 100 µM
- TGI [2]: > 100 µM
- TGI [3]: > 100 µM
- TGI [4]: > 100 µM
- TGI [5]: > 100 µM
- TGI [6]: > 100 µM
- TGI [7]: > 100 µM
- TGI [8]: > 100 µM
- TGI [54]: > 100 µM
- TGI [9]: > 100 µM
- TGI [10]: > 100 µM
- TGI [11]: > 100 µM
- TGI [12]: > 100 µM
- TGI [55]: > 100 µM
- TGI [14]: > 100 µM
- TGI [15]: > 100 µM
- TGI [16]: > 100 µM
- TGI [17]: > 100 µM
- TGI [18]: > 100 µM
- TGI [19]: > 100 µM
- TGI [20]: > 100 µM
- TGI [21]: > 100 µM
- TGI [22]: > 100 µM
- TGI [23]: > 100 µM
- TGI [24]: > 100 µM
- TGI [25]: > 100 µM
- TGI [26]: > 100 µM
- TGI [27]: > 100 µM
- TGI [28]: > 100 µM
- TGI [29]: > 100 µM
- TGI [30]: > 100 µM
- TGI [56]: > 100 µM
- TGI [31]: > 100 µM
- TGI [32]: > 100 µM
- TGI [33]: > 100 µM
- TGI [34]: > 100 µM
- TGI [35]: > 100 µM
- TGI [36]: > 100 µM
- TGI [57]: > 100 µM
- TGI [38]: > 100 µM
- TGI [58]: > 100 µM
- TGI [39]: > 100 µM
- TGI [40]: > 100 µM
- TGI [41]: > 100 µM
- TGI [42]: > 100 µM
- TGI [43]: > 100 µM
- TGI [44]: 83.6 µM
- TGI [45]: > 100 µM
- TGI [46]: > 100 µM
- TGI [47]: > 100 µM
- TGI [48]: > 100 µM
- TGI [49]: > 100 µM
- TGI [59]: > 100 µM
- TGI [50]: > 100 µM
- TGI [51]: > 100 µM
- TGI [52]: 89.9 µM
